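48-hour exposure; five concentrations; linearly interpolated endpoints. The concentration for 50% growth inhibition is given as GI50.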 Active and inactive are the calls of the source. No stated cut-off is given here; in the data, active = GI50 up to about 1.1 µM and inactive = higher.
Experiments:
Test in all cases: NCI tumour cell line growth inhibition, 48 h
LOX IMVI = tested on: LOX IMVI
COLO 205 = tested on: COLO 205
NCI-H460 = tested on: NCI-H460
UACC-257 = tested on: UACC-257
SN12C = tested on: SN12C
RXF 393 = tested on: RXF 393
OVCAR-4 = tested on: OVCAR-4
SK-OV-3 = tested on: SK-OV-3
KM12 = tested on: KM12
HCC 2998 = tested on: HCC 2998
SK-MEL-5 = tested on: SK-MEL-5
RPMI-8226 = tested on: RPMI-8226
SF-295 = tested on: SF-295
HT-29 = tested on: HT-29
SF-539 = tested on: SF-539
MCF7 = tested on: MCF7
CAKI-1 = tested on: CAKI-1
Malme-3M = tested on: Malme-3M
M14 = tested on: M14
TK-10 = tested on: TK-10

| SMILES | GI50 (LOX IMVI) | GI50 (COLO 205) | GI50 (NCI-H460) | GI50 (UACC-257) | GI50 (SN12C) | GI50 (RXF 393) | GI50 (OVCAR-4) | GI50 (SK-OV-3) | GI50 (KM12) | GI50 (HCC 2998) | GI50 (SK-MEL-5) | GI50 (RPMI-8226) | GI50 (SF-295) | GI50 (HT-29) | GI50 (SF-539) | GI50 (MCF7) | GI50 (CAKI-1) | GI50 (Malme-3M) | GI50 (M14) | GI50 (TK-10) |
| --- | --- | --- | --- | --- | --- | --- | --- | --- | --- | --- | --- | --- | --- | --- | --- | --- | --- | --- | --- | --- |
| C=C1C(=O)OC2C1CC1OC2C(C)CCC/C(C)=C\CCC1(C)O (centres undefined) | 6.55 µM (inactive) | 15.8 µM (inactive) | 20.1 µM (inactive) | 22.6 µM (inactive) | 19.5 µM (inactive) | 5.7 µM (inactive) | 18.2 µM (inactive) | 65.3 µM (inactive) | 19.8 µM (inactive) | 20.3 µM (inactive) | 5.14 µM (inactive) | 7.6 µM (inactive) | 37.5 µM (inactive) | 30.3 µM (inactive) | 16.5 µM (inactive) | 15.3 µM (inactive) | 18.6 µM (inactive) | 32.7 µM (inactive) | – | – |
| CCN(CC)CCCNc1ncc(C)c2[nH]c3ccncc3c12 | 3.64 µM (inactive) | 4.13 µM (inactive) | 3.33 µM (inactive) | 12.5 µM (inactive) | 4.88 µM (inactive) | 6.61 µM (inactive) | 4.5 µM (inactive) | 5.82 µM (inactive) | 6.18 µM (inactive) | 8.61 µM (inactive) | 13.6 µM (inactive) | 50.5 µM (inactive) | 11.2 µM (inactive) | 4.22 µM (inactive) | 6.5 µM (inactive) | 3.31 µM (inactive) | – | 10.3 µM (inactive) | – | – |
| CCOC(=O)Oc1ccc(C(CNC(C)C)OC(=O)OCC)cc1OC(=O)OCC (centres undefined) | > 100 µM (inactive) | > 100 µM (inactive) | > 100 µM (inactive) | > 100 µM (inactive) | > 100 µM (inactive) | 11.5 µM (inactive) | 65.5 µM (inactive) | > 100 µM (inactive) | > 100 µM (inactive) | > 100 µM (inactive) | > 100 µM (inactive) | > 100 µM (inactive) | > 100 µM (inactive) | > 100 µM (inactive) | > 100 µM (inactive) | > 100 µM (inactive) | > 100 µM (inactive) | > 100 µM (inactive) | > 100 µM (inactive) | > 100 µM (inactive) |
| CC1(C)N=C(N)N=C(N)N1c1ccc(OCCCOc2ccccc2)c(Cl)c1 | 0.0457 µM (active) | 0.112 µM (active) | 0.0457 µM (active) | 0.766 µM (active) | 0.202 µM (active) | 0.479 µM (active) | 0.156 µM (active) | 7.31 µM (inactive) | 0.122 µM (active) | 0.315 µM (active) | 0.265 µM (active) | 0.547 µM (active) | 0.538 µM (active) | 0.0161 µM (active) | 0.336 µM (active) | 0.327 µM (active) | 1.77 µM (inactive) | 0.49 µM (active) | – | – |
| CC(C)c1ccccc1SCc1cc(=O)cc(CSc2ccccc2C(C)C)o1 | 26.8 µM (inactive) | 37.2 µM (inactive) | 21.1 µM (inactive) | 20.5 µM (inactive) | – | 31 µM (inactive) | 19.5 µM (inactive) | 22.1 µM (inactive) | 15.7 µM (inactive) | 30.3 µM (inactive) | 24.1 µM (inactive) | 32.4 µM (inactive) | 17.7 µM (inactive) | 19.8 µM (inactive) | – | 18.2 µM (inactive) | 18.5 µM (inactive) | 25.2 µM (inactive) | 20.2 µM (inactive) | 17.9 µM (inactive) |
| COc1cc(C2c3cc4c(cc3[C@@H](Nc3cnc5ccccc5c3)C3COC(=O)[C@H]23)OCO4)cc(OC)c1O (some centres undefined) | 0.37 µM (active) | 1.28 µM (inactive) | < 0.01 µM (active) | 0.839 µM (active) | 0.338 µM (active) | 0.912 µM (active) | 1.05 µM (active) | 0.615 µM (active) | 0.883 µM (active) | 0.794 µM (active) | 0.193 µM (active) | 0.159 µM (active) | 0.148 µM (active) | 0.634 µM (active) | 0.168 µM (active) | 0.0834 µM (active) | 0.129 µM (active) | 0.621 µM (active) | – | – |
| CN(C)c1ccc(N2C(=S)SC(=N\c3ccccc3)/C2=N/c2ccccc2)cc1 | – | > 100 µM (inactive) | > 100 µM (inactive) | – | > 100 µM (inactive) | 3.43 µM (inactive) | > 100 µM (inactive) | > 100 µM (inactive) | > 100 µM (inactive) | > 100 µM (inactive) | > 100 µM (inactive) | > 100 µM (inactive) | > 100 µM (inactive) | – | – | > 100 µM (inactive) | > 100 µM (inactive) | > 100 µM (inactive) | > 100 µM (inactive) | – |
